What is called IC50 is the point on the concentration scale where inhibition reaches its midpoint.

Each structure is given as a SMILES string. Entries after “also recorded” stand apart in the source; their conditions may differ.

The target of assay [1] is T1, Purified rabbit 20S proteasome (Oryctolagus cuniculus, UniProt G1T4Q9).
T1 sequence (G1T4Q9 60-263): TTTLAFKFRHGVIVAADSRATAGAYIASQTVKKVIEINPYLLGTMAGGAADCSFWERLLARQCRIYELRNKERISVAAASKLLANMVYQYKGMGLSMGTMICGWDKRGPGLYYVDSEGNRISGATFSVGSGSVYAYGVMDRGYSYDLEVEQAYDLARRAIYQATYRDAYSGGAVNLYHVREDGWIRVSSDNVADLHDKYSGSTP
As to the kind of experiment: Inhibition of chymotrypsin-like activity of purified 20S proteasome. Format: biochemical. Particulars: for inhibition of proteasomal chymotryptic activity (in words): 2 h; for IC50: Suc-LLVY-AMC, 2 h at 37° C., read-out: IC50, inhibition of proteasomal chymotrypsin-like activity. From the text:
EGCG was used as a comparative standard. Materials. Purified rabbit 20S proteasome and fluorogenic substrate Suc-LLVY-AMC for the proteasomal chymotrypsinlike (CT-like) activity were obtained from Calbiochem Inc. (San Diego, Calif.). Fetal bovine serum (FBS) was from Tissue Culture Biologicals (Tulare, Calif.). Penicillin and streptomycin were purchased from Invitrogen Co. (Carlsbad, Calif.). RPMI 1640 medium was purchased from Invitrogen Co. (Carlsbad, Calif.). […] Inhibition of purified 20S proteasome activity by EGCG and its analogs.

The subject of assay [2] is human multiple myeloma ARP cells. As to the kind of experiment: MTT assay in multiple myeloma ARP cells, alone or combined with Velcade. Particulars: 48 hrs; for effect on cell proliferation in combination with bortezomib (in words): 20 μM with varying doses of Velcade; for inhibition of cell proliferation as single agent (in words): ARP cells. Format: cell-based. As for the experimental part:
The cells were treated with Velcade alone or with 20 μM of compounds 5, 7 and 23 or in combination with varying doses of Velcade for 48 hrs, followed by a MTT assay.
Deep purple color indicates fully viable cells; light purple color indicates a reduced number of viable cells; and yellowish color indicates an absence of viable cells.
MTT assay. Cells were grown in a 96-well plate. Triplicate wells of cells were treated with indicated concentrations of EGCG or EGCG analogs for 24 h. After aspiration of medium, MTT (1 mg/ml) was then added to the cell cultures, followed by incubation for 3 h at 37° C. After cells were crystallized, MTT was removed and DMSO was added to dissolve the metabolized MTT product. The absorbance was then measured on a Wallac Victor3 1420 Multi-label counter at 540 nm.

In another assay the test system is cancer cell lines. Particulars: a number of cancer cell lines; cited from earlier work.

Consider `CC(=O)Oc1cc(C(=O)O[C@H]2Cc3ccccc3C[C@H]2OC(C)=O)cc(OC(C)=O)c1OC(C)=O` [Compound 17], for which, in assay [1], the “inhibition of proteasomal chymotryptic activity (in words)” value is “none of the resulting derivatives 4, 6, 8, 17 and 22 exhibited proteasomal inhibition”.

As for `O=C(O[C@@H]1Cc2c(O)cc(O)cc2O[C@@H]1c1cc(O)c(O)c(O)c1)c1cc(O)c(O)c(O)c1` [EGCG, (−)Epigallocatechin gallate, reference compound], the “inhibition of proteasomal chymotryptic activity (in words)” value in assay [1] was “potently inhibited”.

With `O=C(O[C@H]1Cc2ccccc2C[C@H]1OC(=O)c1cc(O)c(O)c(O)c1)c1cc(O)c(O)c(O)c1` [Compound 5], the “effect on cell proliferation in combination with bortezomib (in words)” value in assay [2] is recorded as “interfered with; also recorded: partially block the inhibitory effect of bortezomib”. Besides, in assay [1], the IC50 stood at 19 µM.

In the case of `CC(=O)Oc1cc(OC(C)=O)c2c(c1)O[C@H](c1cc(OC(C)=O)c(OC(C)=O)c(OC(C)=O)c1)[C@H](OC(=O)c1cc(OC(C)=O)c(OC(C)=O)c(OC(C)=O)c1)C2` [Compound 4, (−)Epigallocatechin gallate octa acetate, reference compound], the “inhibition of proteasomal chymotryptic activity (in words)” value in assay [1] is “none of the resulting derivatives 4, 6, 8, 17 and 22 exhibited proteasomal inhibition”. Besides, the “growth inhibitory activity compared to EGCG (1) (in words)” value in the assay on cancer cell lines is listed as “enhanced growth inhibitory activity”.

Turning to `O=C(O[C@H]1Cc2ccccc2C[C@H]1OC(=O)c1cc(O)cc(O)c1)c1cc(O)cc(O)c1` [Compound 7], in assay [2], the “effect on cell proliferation in combination with bortezomib (in words)” value is listed as “synergistic inhibitory effect” and the “inhibition of cell proliferation as single agent (in words)” value is “most potent cell proliferation inhibitor”. Besides, in assay [1], the IC50 came out at 29 µM.

Regarding `CC(C)C[C@H](NC(=O)[C@H](Cc1ccccc1)NC(=O)c1cnccn1)B(O)O` [bortezomib, reference compound], in assay [2], the “inhibition of cell proliferation as single agent (in words)” value is given as “reduced cell proliferation in a dose-dependent manner”.

For `CC(=O)Oc1cc(OC(C)=O)cc(C(=O)O[C@H]2Cc3ccccc3C[C@H]2OC(C)=O)c1` [Compound 22], the “inhibition of proteasomal chymotryptic activity (in words)” value in assay [1] was “none of the resulting derivatives 4, 6, 8, 17 and 22 exhibited proteasomal inhibition”.

These data come from patent publication US20110152210A1, “POLYPHENOL COMPOUNDS FOR INHIBITING PROTEASOME AND USES THEREOF” (THE ROYAL INSTITUTION FOR THE ADVANCEMENT OF …, priority 2009, published 2011).
